Laboratory results from PMC9828538, “Antigiardial Activity of Novel Guanidine Compounds” (Chemmedchem, 2022).
Converted amounts (≈) assume the structure as drawn.

Tests used:
[1] = system: Vero cells; experiment: In vitro cytotoxicity, Vero cells; conditions: 25 μM; for Toxicity (Y/N): Tables 1-3 (toxic if >20 % cells affected)
Experimental: (§1) Biology Materials and Methods: […]
(§2) CaCo-2 cells, a human cell line derived from a primary colonic tumour, were sourced from Cellbank Australia and were maintained in MEM supplemented with 2 mM glutamine, 1% non-essential amino acids and 10% FCS (Thermo Scientific). Cells were passaged when confluent, approximately 1-2 times per week. Vero cells were also obtained from Cellbank Australia and maintained as above.
(§3) In vitro drug efficacy assays […]
(§4) The media was removed and replaced with an equal volume of warm PBS. Resazurin (Sigma) was then added at 10% of the total volume of the wells. Plates were further incubated for colour development and absorbance read at 570 nm and 630 nm. Resazurin reduction was calculated according to the following formula: […]
CaCo-2 or Vero cells, maintained as outlined above, were collected via trypsinisation and enumerated using trypan blue and a haemocytometer. Select analogues were prepared in DMSO so that the final concentration in the assay […]
in 96 well plates and incubated for 24 hours at 37°C, 5% CO2 in a humidified incubator. After incubation cells were […]
washed with warm PBS before the addition of 10% resazurin in PBS. Assays were incubated to allow colour development and absorbance read at 630 and 570nm. Activity of the analogues against mammalian cells was calculated according to the formula stated above. […]
reduction assay the mean and standard error of the mean was determined with each assay completed in triplicate.
The IC50 was calculated using the log (inhibitor) vs. normalised response – variable slope function in Graphpad […]

[2] = system: Escherichia coli; experiment: Antibacterial activity against gram negative bacteria (E. coli); assay type: cell-based
Experimental: (§5) Biology Materials and Methods:
Metronidazole was sourced from sigma. […]
hydrogen orthophosphate (Fronine laboratory supplies, Riverstone, NSW).
Subcultures were performed once a confluent
Scientific). […] Vero cells were also obtained from Cellbank Australia and maintained as above.
(§6) In vitro drug efficacy assays
Resazurin Reduction Assay
For all assays the media of confluent cultures
2007). […] Resazurin (Sigma) was then
Plates were further incubated for colour development and absorbance read at 570 nm and 630 nm. Resazurin reduction was calculated according to the following formula: […]
broth for a random selection of compounds (Thermofisher Scientific). Compounds were diluted in DMSO to 100X […]
Cells were incubated for 18-24 hrs before interpretation of results. […]
blue and a haemocytometer. […]
was 25 μM. […] Assays were completed
After incubation cells were […]

[3] = system: CaCo-2 cells; conditions: human, 24 h, 25 μM
Experimental: as §1, §2, §3
as §4, with “2007). The” for “The”
(§7) CaCo-2 or Vero cells, maintained as outlined above, were collected via trypsinisation and enumerated using trypan blue and a haemocytometer. Select analogues were prepared in DMSO so that the final concentration in the assay was 25 μM. 1 X 10^5 cells/ml were added to each assay with the appropriate drug dilution. Assays were completed in 96 well plates and incubated for 24 hours at 37°C, 5% CO2 in a humidified incubator. After incubation cells were […]
(§8) washed with warm PBS before the addition of 10% resazurin in PBS. Assays were incubated to allow colour development and absorbance read at 630 and 570nm. Activity of the analogues against mammalian cells was calculated according to the formula stated above.

[4] = system: Giardia duodenalis trophozoites (BAH2c2 strain); experiment: Resazurin reduction assay on Giardia trophozoites in vitro; assay type: cell-based; conditions: for IC50 / MIC: Giardia duodenalis, 24 h; for IC50: read-out: Antigiardial activity IC50 (24 h); for MIC: minimum inhibitory concentration, read-out: Antigiardial activity MIC (24 h); for Selectivity ratio: higher ratios = more selective, toxicity tested at 25 μM vs 24 h IC50, Tables 1-3
Description: as §5
Metronidazole was sourced from sigma.
Chemicals used for the culture of Giardia in vitro were sourced as follows: glucose and L-cysteine (ACROS organics, Thermo Fisher Scientific, Scoresby, Vic), Ammonium Iron (III) citrate, ascorbic Acid (Sigma -aldrich, Castle Hill, NSW), potassium dihydrogen orthophosphate (UNIVAR, Ingleburn, NSW), bovine bi le (Fluka analytical (BD)), di-potassium hydrogen orthophosphate (Fronine laboratory supplies, Riverstone, NSW).
G. duodenalis (BAH2c2 strain) was cultivated according to the method of Clark and Diamond in Keister’s modified TYI-S-33 medium, supplemented with heat inactivated foetal bovine serum (Hyclone™, Thermo Scientific, Scoresby, Vic) at 37°C in plastic 9 mL screw-capped test tubes (nunc). Subcultures were performed once a confluent monolayer was observed, approximately 2 – 3 times per week (Clark and Diamond, 2002).
as §2, §6
Resazurin Reduction Assay […]
tested to identify the IC50 and minimum lethal concentration (MLC). For all assays the media of confluent cultures was replaced with fresh media and the cultures were placed on ice for 40 minutes to detach trophozoites.
Trophozoites were enumerated using a haemocytometer and 50 000 trophozoites were added to each test well of a 96 well plate. Either single concentrations (final concentration 25 μM) for the screening assay or tripling dilutions […]
wells. The assays were repeated in triplicate with metronidazole and a DMSO (vehicle only) used as controls. Plates were incubated under anaerobic conditions (anaerogen sachet, Thermofisher scientific) for 5 or 24 hours at 37°C following which the viability of treated cells was determined using the resazurin reduction assay (Benere et al., 2007). The media was removed and replaced with an equal volume of warm PBS. Resazurin (Sigma) was then added at 10% of the total volume of the wells. Plates were further incubated for colour development and absorbance read at 570 nm and 630 nm. Resazurin reduction was calculated according to the following formula: […]
as §7, §8

Cl.N=C(NN=Cc1ccc(Br)cc1)NN=Cc1ccc(Br)cc1 [Compound 6]
cell death ([1]; Vero cells): < 10% | Activity against gram negative bacteria / E. coli [2]: no antibacterial activity | Toxicity (% growth control) [3]: 97.1±1.6% | cell death [3]: < 10% | IC50 [4]: 1700 nM | MIC [4]: 8.3 µM | Selectivity ratio [4]: >14.7

N=C(NN=Cc1ccc(F)cc1)NN=Cc1ccc(F)cc1 [Compound 7]
IC50 [4]: 6520 nM | MIC [4]: 12.5 µM (≈ 3.77 µg/mL)

N=C(NN=Cc1cccc(Cl)c1)NN=Cc1cccc(Cl)c1 [Compound 8]
IC50 [4]: 3500 nM | MIC [4]: 6.25 µM (≈ 2.09 µg/mL)

N=C(NN=Cc1cccc(Br)c1)NN=Cc1cccc(Br)c1 [Compound 9]
IC50 [4]: 2900 nM | MIC [4]: 25 µM (≈ 10.6 µg/mL)

N=C(NN=Cc1cccc(F)c1)NN=Cc1cccc(F)c1 [Compound 10]
IC50 [4]: > 25000 nM | MIC [4]: > 25 µM

Cl.N=C(NN=Cc1ccccc1Br)NN=Cc1ccccc1Br [Compound 11]
Activity against gram negative bacteria / E. coli [2]: no antibacterial activity | Toxicity (% growth control) [3]: 79.1±2.3% | IC50 [4]: 800 nM | MIC [4]: 25 µM | Selectivity ratio [4]: >31.3

Cl.N=C(NN=Cc1ccccc1Cl)NN=Cc1ccccc1Cl [Compound 12]
Activity against gram negative bacteria / E. coli [2]: no antibacterial activity | IC50 [4]: 12400 nM | MIC [4]: 25 µM

Cl.N=C(NN=Cc1ccccc1F)NN=Cc1ccccc1F [Compound 13]
Toxicity (% growth control) ([1]; Percent Vero cell growth, 24 h): 93.9±1.9% | Toxicity (Y/N) ([1]; Vero cells, 24 h): N (compounds are indicated as toxic if >20 % cells are affected) | IC50 [4]: > 25000 nM | MIC [4]: > 25 µM

Cc1ccc(C=NNC(=N)NN=Cc2ccc(C)cc2)cc1 [Compound 14]
MIC [4]: 25 µM (≈ 7.33 µg/mL)

Cc1cccc(C=NNC(=N)NN=Cc2cccc(C)c2)c1 [Compound 15]
IC50 [4]: 4900 nM | MIC [4]: 6.25 µM (≈ 1.83 µg/mL)

Cc1ccccc1C=NNC(=N)NN=Cc1ccccc1C [Compound 16]
MIC [4]: 25 µM (≈ 7.33 µg/mL)

N=C(NN=Cc1ccc(-c2ccccc2)cc1)NN=Cc1ccc(-c2ccccc2)cc1 [Compound 17]
IC50 [4]: 400 nM | MIC [4]: 2.8 µM (≈ 1.17 µg/mL)

Cl.N=C(NN=Cc1ccccc1-c1ccccc1)NN=Cc1ccccc1-c1ccccc1 [Compound 18]
Toxicity (% growth control) [3]: 75.4±3.4% | IC50 [4]: 2800 nM | MIC [4]: > 25 µM | Selectivity ratio [4]: >8.9

CCCc1ccc(C=NNC(=N)NN=Cc2ccc(CCC)cc2)cc1 [Compound 19]
IC50 [4]: 800 nM | MIC [4]: 8.3 µM (≈ 2.9 µg/mL)

CCCCc1ccc(C=NNC(=N)NN=Cc2ccc(CCCC)cc2)cc1 [Compound 20]
IC50 [4]: 1900 nM | MIC [4]: 8.3 µM (≈ 3.13 µg/mL)

CC(C)c1ccc(C=NNC(=N)NN=Cc2ccc(C(C)C)cc2)cc1 [Compound 21]
IC50 [4]: 1900 nM | MIC [4]: 6.25 µM (≈ 2.18 µg/mL)

CC(C)(C)c1ccc(C=NNC(=N)NN=Cc2ccc(C(C)(C)C)cc2)cc1 [Compound 22]
IC50 [4]: 3200 nM | MIC [4]: 8.3 µM (≈ 3.13 µg/mL)

C#Cc1cccc(C=NNC(=N)NN=Cc2cccc(C#C)c2)c1 [Compound 23]
IC50 [4]: 1200 nM | MIC [4]: 25 µM (≈ 7.83 µg/mL)

COc1ccc(C=NNC(=N)NN=Cc2ccc(OC)cc2)cc1.Cl [Compound 24]
Toxicity (Y/N) ([1]; Vero cells, 24 h): Y^[e] (compounds are indicated as toxic if >20 % cells are affected) | IC50 [4]: 5990 nM | Selectivity ratio [4]: >4.2
